From ChEMBL document CHEMBL3797052 (Eur J Med Chem, 2016)

How the values were obtained:
[1] = Antiproliferative activity against human OVCAR3 cells assessed as growth inhibition after 48 hrs by sulforhodamine B assay; format: functional; conditions: OVCAR-3, 48 h
[2] = Antiproliferative activity against human UACC62 cells assessed as cell growth at 10^-7 M after 48 hrs by sulforhodamine B assay; format: functional; conditions: UACC-62, 48 h, read-out: Activity
[3] = Antiproliferative activity against human UACC257 cells assessed as cell growth at 10^-7 M after 48 hrs by sulforhodamine B assay; format: functional; conditions: UACC-257, 48 h, read-out: Activity
MDA-MB-231 = experiment: Antiproliferative activity against human MDA-MB-231 cells assessed as cell growth at 10^-8 M after 48 hrs by sulforhodamine B assay; format: functional; conditions: MDA-MB-231, 48 h, read-out: Activity
786-0 [4] = experiment: Antiproliferative activity against human 786-0 cells assessed as cell growth at 10^-6 M after 48 hrs by sulforhodamine B assay; format: functional; conditions: 786-0, 48 h, read-out: Activity
[5] = Antiproliferative activity against human NCI-ADR-RES cells assessed as cell growth at 10^-8 M after 48 hrs by sulforhodamine B assay; format: functional; conditions: read-out: Activity
786-0 [6] = experiment: Antiproliferative activity against human 786-0 cells assessed as cell growth at 10^-8 M after 48 hrs by sulforhodamine B assay; format: functional; conditions: 786-0, 48 h, read-out: Activity
[7] = Antiproliferative activity against human OVCAR8 cells assessed as cell growth at 10^-4 M after 48 hrs by sulforhodamine B assay; format: functional; conditions: OVCAR-8, 48 h, read-out: Activity
SK-MEL-5 = experiment: Antiproliferative activity against human SK-MEL-5 cells assessed as cell growth at 10^-6 M after 48 hrs by sulforhodamine B assay; format: functional; conditions: SK-MEL-5, 48 h, read-out: Activity
[8] = Antiproliferative activity against human SNB75 cells assessed as cell growth at 10^-6 M after 48 hrs by sulforhodamine B assay; format: functional; conditions: SNB-75, 48 h, read-out: Activity
[9] = biological target: RAF proto-oncogene serine/threonine-protein kinase (Homo sapiens, UniProt P04049); experiment: Inhibition of human C-RAF measured after 40 mins by scintillation counting
NCI-H23 = experiment: Antiproliferative activity against human NCI-H23 cells assessed as cell growth at 10^-4 M after 48 hrs by sulforhodamine B assay; format: functional; conditions: NCI-H23, 48 h, read-out: Activity
HT-29 = experiment: Antiproliferative activity against human HT-29 cells assessed as cell growth at 10^-4 M after 48 hrs by sulforhodamine B assay; format: functional; conditions: HT-29, 48 h, read-out: Activity
[10] = Antiproliferative activity against human OVCAR4 cells assessed as cell growth at 10^-8 M after 48 hrs by sulforhodamine B assay; format: functional; conditions: OVCAR-4, 48 h, read-out: Activity
hERG (KCNH2) = hERG (KCNH2) (Homo sapiens, UniProt Q12809); experiment: Inhibition of human ERG assessed as reduction in channel current at 100 uM by automated patch-clamp electrophysiology assay
ACHN = experiment: Antiproliferative activity against human ACHN cells assessed as cell growth at 10^-4 M after 48 hrs by sulforhodamine B assay; format: functional; conditions: read-out: Activity
[11] = Antiproliferative activity against human LOXIMVI cells assessed as growth inhibition after 48 hrs by sulforhodamine B assay; format: functional; conditions: LOX IMVI
Malme-3M = experiment: Antiproliferative activity against human MALME-3M cells assessed as cell growth at 10^-6 M after 48 hrs by sulforhodamine B assay; format: functional; conditions: read-out: Activity
[12] = Antiproliferative activity against human HCT116 cells assessed as cell growth at 10^-4 M after 48 hrs by sulforhodamine B assay; format: functional; conditions: HCT-116, 48 h, read-out: Activity
[13] = Antiproliferative activity against human HOP92 cells assessed as cell growth at 10^-7 M after 48 hrs by sulforhodamine B assay; format: functional; conditions: HOP-92, 48 h, read-out: Activity
NCI-H460 = experiment: Antiproliferative activity against human NCI-H460 cells assessed as cell growth at 10^-8 M after 48 hrs by sulforhodamine B assay; format: functional; conditions: NCI-H460, 48 h, read-out: Activity
[14] = Antiproliferative activity against human HCT15 cells assessed as cell growth at 10^-8 M after 48 hrs by sulforhodamine B assay; format: functional; conditions: HCT-15, 48 h, read-out: Activity
[15] = Antiproliferative activity against human HCC2998 cells assessed as cell growth at 10^-4 M after 48 hrs by sulforhodamine B assay; format: functional; conditions: HCC 2998, 48 h, read-out: Activity
[16] = Antiproliferative activity against human COLO205 cells assessed as cell growth at 10^-7 M after 48 hrs by sulforhodamine B assay; format: functional; conditions: COLO 205, 48 h, read-out: Activity
MCF7 [17] = experiment: Antiproliferative activity against human MCF7 cells assessed as cell growth at 10^-8 M after 48 hrs by sulforhodamine B assay; format: functional; conditions: MCF7, 48 h, read-out: Activity
[18] = Antiproliferative activity against human HCT15 cells assessed as cell growth at 10^-7 M after 48 hrs by sulforhodamine B assay; format: functional; conditions: HCT-15, 48 h, read-out: Activity
M14 = experiment: Antiproliferative activity against human M14 cells assessed as growth inhibition after 48 hrs by sulforhodamine B assay; format: functional; conditions: M14, 48 h
KM12 = experiment: Antiproliferative activity against human KM12 cells assessed as cell growth at 10^-8 M after 48 hrs by sulforhodamine B assay; format: functional; conditions: KM12, 48 h, read-out: Activity
A498 = experiment: Antiproliferative activity against human A498 cells assessed as cell growth at 10^-4 M after 48 hrs by sulforhodamine B assay; format: functional; conditions: A498, 48 h, read-out: Activity
NCI-H322M = experiment: Antiproliferative activity against human NCI-H322M cells assessed as cell growth at 10^-6 M after 48 hrs by sulforhodamine B assay; format: functional; conditions: read-out: Activity
A549 = experiment: Antiproliferative activity against human A549/ATCC cells assessed as cell growth at 10^-6 M after 48 hrs by sulforhodamine B assay; format: functional; conditions: A549, 48 h, read-out: Activity
NCI-H522 = experiment: Antiproliferative activity against human NCI-H522 cells assessed as cell growth at 10^-6 M after 48 hrs by sulforhodamine B assay; format: functional; conditions: NCI-H522, 48 h, read-out: Activity
K562 = experiment: Antiproliferative activity against human K562 cells assessed as growth inhibition after 48 hrs by sulforhodamine B assay; format: functional; conditions: K562, 48 h
MCF7 [19] = experiment: Antiproliferative activity against human MCF7 cells assessed as cell growth at 10^-4 M after 48 hrs by sulforhodamine B assay; format: functional; conditions: MCF7, 48 h, read-out: Activity
[20] = Antiproliferative activity against human SF539 cells assessed as growth inhibition after 48 hrs by sulforhodamine B assay; format: functional; conditions: SF-539, 48 h
[21] = read-out: LC50 (the source's name)

RAF proto-oncogene serine/threonine-protein kinase, sequence (P04049 whole entry): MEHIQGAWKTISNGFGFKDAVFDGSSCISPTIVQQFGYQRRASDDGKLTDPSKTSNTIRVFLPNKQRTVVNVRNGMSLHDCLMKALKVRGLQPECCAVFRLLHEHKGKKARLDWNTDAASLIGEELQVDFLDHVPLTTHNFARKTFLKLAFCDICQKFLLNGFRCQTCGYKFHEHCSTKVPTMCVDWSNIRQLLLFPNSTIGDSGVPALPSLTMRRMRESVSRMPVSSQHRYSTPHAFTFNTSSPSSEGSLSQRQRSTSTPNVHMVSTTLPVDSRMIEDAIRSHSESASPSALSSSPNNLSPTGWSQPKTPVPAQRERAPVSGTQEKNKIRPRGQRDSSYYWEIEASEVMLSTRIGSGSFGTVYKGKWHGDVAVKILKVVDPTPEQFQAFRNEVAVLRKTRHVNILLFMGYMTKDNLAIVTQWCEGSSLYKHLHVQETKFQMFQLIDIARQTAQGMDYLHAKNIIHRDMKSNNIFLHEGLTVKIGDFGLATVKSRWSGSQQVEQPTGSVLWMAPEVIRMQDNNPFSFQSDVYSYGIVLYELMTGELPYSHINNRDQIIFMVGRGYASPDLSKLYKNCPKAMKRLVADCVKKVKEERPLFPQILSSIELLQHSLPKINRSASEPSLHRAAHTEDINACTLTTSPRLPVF
hERG (KCNH2), sequence (Q12809 whole entry): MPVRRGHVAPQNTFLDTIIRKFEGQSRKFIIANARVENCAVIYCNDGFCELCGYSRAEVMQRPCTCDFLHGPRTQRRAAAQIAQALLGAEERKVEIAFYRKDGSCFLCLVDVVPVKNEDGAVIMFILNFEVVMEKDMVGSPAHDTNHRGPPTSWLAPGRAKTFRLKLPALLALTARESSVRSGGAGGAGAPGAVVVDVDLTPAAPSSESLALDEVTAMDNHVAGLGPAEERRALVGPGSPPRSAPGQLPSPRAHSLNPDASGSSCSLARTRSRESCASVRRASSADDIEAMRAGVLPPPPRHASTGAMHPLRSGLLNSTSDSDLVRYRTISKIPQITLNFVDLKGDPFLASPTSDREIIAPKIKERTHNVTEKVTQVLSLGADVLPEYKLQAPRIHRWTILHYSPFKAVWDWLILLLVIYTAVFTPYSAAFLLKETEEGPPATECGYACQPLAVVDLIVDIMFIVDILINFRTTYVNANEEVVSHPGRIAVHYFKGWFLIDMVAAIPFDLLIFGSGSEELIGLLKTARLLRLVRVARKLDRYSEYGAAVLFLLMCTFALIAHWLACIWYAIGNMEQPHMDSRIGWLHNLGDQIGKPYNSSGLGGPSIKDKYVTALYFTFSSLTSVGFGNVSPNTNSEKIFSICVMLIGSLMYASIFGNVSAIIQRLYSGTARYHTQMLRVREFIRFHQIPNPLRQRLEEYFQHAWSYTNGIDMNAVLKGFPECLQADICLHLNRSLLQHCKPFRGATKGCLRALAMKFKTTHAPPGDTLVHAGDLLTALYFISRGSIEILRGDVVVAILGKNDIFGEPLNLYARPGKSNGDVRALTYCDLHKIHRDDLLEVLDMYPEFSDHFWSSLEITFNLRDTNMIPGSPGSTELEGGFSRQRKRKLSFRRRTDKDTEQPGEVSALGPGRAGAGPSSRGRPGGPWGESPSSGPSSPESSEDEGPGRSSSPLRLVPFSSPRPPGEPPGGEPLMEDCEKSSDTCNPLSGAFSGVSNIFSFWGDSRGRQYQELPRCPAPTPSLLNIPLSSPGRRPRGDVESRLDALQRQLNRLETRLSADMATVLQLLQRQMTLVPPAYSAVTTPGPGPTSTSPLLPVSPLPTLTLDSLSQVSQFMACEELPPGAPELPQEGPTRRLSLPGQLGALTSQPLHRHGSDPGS

SMILES: CNC(=O)c1cc(Oc2ccc3nc(NC(=O)Nc4cc(C(F)(F)F)cc(C(F)(F)F)c4)sc3c2)ccn1
- GI50 [1]: 1030 nM
- LC50 [1]: 5040 nM
- TGI [1]: 2270 nM
- growth at 0.1 µM [2]: 93%
- growth at 0.1 µM [3]: 114%
- growth at 0.01 µM (MDA-MB-231): 103%
- growth at 1 µM (786-0 [4]): 75%
- growth at 0.01 µM [5]: 101%
- growth at 0.01 µM (786-0 [6]): 92%
- growth at 100 µM [7]: -96%
- growth at 1 µM (SK-MEL-5): 36%
- growth at 1 µM [8]: 50%
- IC50 [9]: 566 nM
- growth at 100 µM (NCI-H23): -52%
- growth at 100 µM (HT-29): -82%
- growth at 0.01 µM [10]: 88%
- inhibition at 100 µM (hERG (KCNH2)): 30.2%
- growth at 100 µM (ACHN): -80%
- GI50 [11]: 1210 nM
- TGI [11]: 2530 nM
- CC50 [11, 21]: 5290 nM
- growth at 1 µM (Malme-3M): 48%
- growth at 100 µM [12]: -95%
- growth at 0.1 µM [13]: 98%
- growth at 0.01 µM (NCI-H460): 102%
- growth at 0.01 µM [14]: 88%
- growth at 100 µM [15]: -74%
- growth at 0.1 µM [16]: 96%
- growth at 0.01 µM (MCF7 [17]): 85%
- growth at 0.1 µM [18]: 100%
- GI50 (M14): 1500 nM
- TGI (M14): 3220 nM
- CC50 (M14; [21]): 6900 nM
- growth at 0.01 µM (KM12): 100%
- growth at 100 µM (A498): -93%
- growth at 1 µM (NCI-H322M): 73%
- growth at 1 µM (A549): 68%
- growth at 1 µM (NCI-H522): 32%
- GI50 (K562): 784 nM
- TGI (K562): 4860 nM
- CC50 (K562; [21]): > 100000 nM
- growth at 100 µM (MCF7 [19]): -55%
- GI50 [20]: 1240 nM
- LC50 [20]: 6330 nM
- TGI [20]: 2800 nM
